Measured values published in patent US7345065B2, “Methods and compositions for alleviating pain” (Allergan, Inc., priority 2002, dated 2008).
Entries after “also recorded” stand apart in the source; their conditions may differ.

Columns and labels:
[1] = test system: sulprostone-sensitized α-2A knockout mice; assay: Sulprostone sensitized pain (allodynia), α-2A knockout mice; format: in vivo, mouse
Protocol: (§1) In brief, mice were divided into groups of 5-6 animals. Control mice were administered 5 ul DMSO while treated animals were injected with 5 ul DMSO containing various doses of the indicated agent. After intrathecal injection, each mouse was placed in an individual 13×8.5×13 cm Plexiglass enclosure with wood chips on the floor for observation. Allodynia was assessed once every five minutes over a 50 minute time period, with response recorded eight times in the 15 to 50 minute time frame. Allodynia was assessed by light stroking of the flank of the mice with a small paintbrush and ranked as follows: 0, no response; 1, mild squeaking with attempts to move away from the stroking probe; and 2, vigorous squeaking evoked by the stroking probe, biting at the probe and strong efforts to escape. The eight scores for each animal were added together, and the mean for the group determined to give an average total score.

[2] = test system: Chung model rats; assay: Chung rat nerve ligation model, tactile allodynia reversal (Von Frey); format: in vivo; settings: for analgesia, agonist given alone: peripheral (intraperitoneal) administration, clonidine 100 μg/kg, Compound 3 1 to 1000 μg/kg; for analgesia, agonist given alone / analgesia when co-administered with 0.3 μg/kg Compound 13: Compound 2 100 μg/kg; for long-term pain alleviation after extended dosing: gabapentin 3 mg/kg oral TID three days, amitriptyline 0.1, brimonidine 0.04, Compound 1 0.1 mg/kg/hour minipump seven days; for analgesia when co-administered with Compound 13 at 0.2 mg/kg/day: osmotic minipump; for allodynia reversal, enantiomers versus parent racemate: intraperitoneal administration, Chung model rats; for Peak allodynia reversal (dose): intraperitoneal injection, dose (3-300 μg/kg); for analgesia when co-administered with 0.3 μg/kg Compound 13: intraperitoneal, clonidine 30 μg/kg
Protocol: The Chung rat nerve ligation model is a well accepted model of peripheral neuropathic pain. In the Chung model, partial ligation of left spinal nerves L-5 and L-6 produces a long-lasting hypersensitivity to light touch on the affected left foot. The hypersensitivity is similar to pain experienced by humans with the neuropathic condition of causalgia (Kim and Chung, Pain 50:355-363 (1992)).
Chung rat surgeries of about 20 minutes duration were performed essentially as follows. Male Sprague-Dawley rats weighing 100 to 120 grams were anesthetized with isofluorane. After shaving and preparing the surgical site with betadine, an incision was made from thoracic vertebra XIII down toward the sacrum, and muscle separated from spinal vertebra (left side) at the L4-S2 levels. The L6 vertebra were located, and the transverse process carefully removed with a small rongeur to visually identify the L4-L6 spinal nerves. L5 and L6 spinal nerves were isolated and tightly ligated with 6-0 silk thread; the wound was sutured after complete hemostasis was confirmed. A small amount of antibiotic ointment was applied to the incised area before transferring the animals to a plastic recovery cage under a regulated heat-temperature lamp. Animals were not treated with any topical or local anesthetics post-operatively.
Assessment of pain in Chung model rats was performed by applying a light tactile stimulus (Von Frey hair) to the affected surgical paw as follows. A 50% pain threshold was established by applying the Von Frey hair in an up-and-down manner to the plantar surface of the surgical paw with just enough force to bend them. A positive response was recorded if the paw was withdrawn sharply. The 50% paw withdrawal threshold was determined using the method of Dixon et al., Ann. Rev. Pharmacol. Toxicol. 20:441-462 (1980). The post-drug threshold was compared to the pre-drug threshold, and the precent reversal of tactile sensitivity calculated based on a normal threshold of 15.1 grams. The results were expressed as % allodynia reversal, reflecting the percentage reversal of pain threshold relative to a normal rat (100%).
Chung surgeries were performed, and pain assessed as described above. Drugs administered via osmotic minipump were delivered as follows. ALZET (Cupertino, Calif.) minipumps (Model #1007D) were implanted subcutaneously on the rats' back between the shoulder blades. Pumps were filled with test solution prior to surgery, which was performed with aseptic procedures and sterilized surgical instruments. After anesthetization with isoflorane and midline incision between the shoulder blades through the muscle, a subcutaneous pocket was exposed. The minipump was inserted into the exposed pocket, before stapling the wounds closed and allowing animals to recover under a warming light.
ALZET osmotic minipumps (model 1007D) hold a total volume of 100 μl and delivered drug at the set rat of 0.5 μl per hour the indicated time period. Drugs were administered at the indicated rate, typically 100 μg/hr/kg, dissolved in 50% DMSO, with the concentration of drug in the pump varied depending on animal weight. […]

[3] = test system: sulprostone-sensitized wild type mice; assay: Sulprostone sensitized pain (allodynia), wild type mice; format: in vivo, mouse
Protocol: Non-specific α-adrenergic agonists were assayed in α-2A receptor deficient (“knockout”) mice (Hein et al., supra, 1999) using a mouse model of sulprostone sensitized pain in which allodynia is evoked by intrathecal administration of a selective prostaglandin E2 receptor agonist to conscious mice essentially as described in Minami et al., Pain 57:217-223 (1994). In this model, the pain response to stroking the flank with a paint brush is scored eight times over a 35 minute period starting 15 minutes following spinal administration of sulprostone and intrathecal or intraperitoneal administration of drug or control vehicle. Sulprostone elicits a “pain” score of 12-13 on a 16-point scale.
as §1, with “Assays for allodynia in wild type and α-2A knockout mice were performed essentially according to the method of Yaksh and Harty, J. Pharmacology Exp. Ther. 244: 501-507 (1998). In” for “In”

[4] = test system: α-2B heterozygous (−/+) and homozygous (−/−) knockout mice; assay: Sulprostone sensitized pain (allodynia), α-2B knockout mice; format: in vivo, mouse; settings: intraperitoneal; heterozygous and homozygous α-2B knockout; clonidine 500 ug/kg, Compound 3 100 ug/kg
[5] = test system: mice; assay: Sedative effects in mice (exploratory activity, digicom analyzer chamber); format: in vivo, mouse; settings: intraperitoneal, wild type mice; clonidine 500 ug/kg, Compound 3 100 ug/kg
Protocol: (§2) Sedative effects were analyzed by assessing exploratory behavior in a darkened chamber as follows. Mice were weighed, and test compound administered by intrathecal injection in a volume of 5 μl or by intraperitoneal injection in 1 ml/kg volume at the indicated dose. At predetermined time points corresponding with analgesia measurements 5 to 30 minutes following the injection, the animal's activity was determined automatically by placing the mouse in a digicom analyzer chamber (Omnitech Electronic; Columbus, Ohio). The digicom analyzer chamber contains photocell beams criss-crossing the box that are broken as the animal moves around; the chamber was modified for mice by raising the level of the floor. Computer analysis of total animal movement proceeded over a 5-minute time period. Any given animal was used at most twice for this protocol, as learned behavior can affect the data. All animals received at least two weeks rest between studies.

[6] = test system: Male Sprague-Dawley rats; assay: Sedative effects in rats (total activity, digicom analyzer chamber); format: in vivo, rat
Protocol: as §2
Male Sprague-Dawley rats that were not subject to surgery were used for assessment of sedative effects. Rats were weighed and compound administered by intravenous or intraperitoneal injection or given orally at the indicated dose. At a predetermined time point 5 to 30 minutes following injection, the animal's activity was determined automatically by placing the rat in a digicom analyzer chamber (Omnitech Electronic). Total activity was analyzed as described above.

[7] = intraperitoneal, α-2A knockout mice (Compound 1 30 μg/kg; Compound 2 and PAC 100 μg/kg)
[8] = intraperitoneal injection, wild type mice (Compound 1 30 μg/kg; Compound 2 100 μg/kg)
[9] = intrathecal injection (Compound 1: 1 μg), wild type mice
[10] = intrathecal injection (Compound 1: 1 μg), α-2A knockout mice
[11] = subcutaneous osmotic minipump 0.1 mg/kg/hour, seven days
[12] = rauwolscine 0.3 μg/kg i.p., Compound 8 by osmotic minipump

## Nc1cc(Cl)c(N=C2NCCN2)c(Cl)c1 [PAC, para-amino clonidine, reference compound]
[1]; [7]
  analgesia: analgesic
[2]; Chung rats
  analgesia, agonist given alone: neither compound was significantly analgesic at non-sedating doses

## CN(C)CCC=C1c2ccccc2CCc2ccccc21 [amitriptyline, reference compound]
[2]
  long-term pain alleviation after extended dosing: the allodynia returned completely prior to or following cessation of treatment

## Cc1c(N=C2NCCN2)ccc2c1NCCO2 [Compound 1]
[3]; [8]
  analgesia: failed to produce analgesia separable from sedation
[3]; [9]
  analgesia: significant analgesia separable from sedation
[1]; [7]
  analgesia: significant analgesia without sedation
[1]; [10]
  analgesia: did not produce analgesia
[2]
  long-term pain alleviation after extended dosing: the allodynia returned completely prior to or following cessation of treatment
[2]; Chung rats
  analgesia when co-administered with Compound 13 at 0.2 mg/kg/day: greater analgesia was observed during the dosing period, and this analgesic effect continued after completion of drug administration
  analgesia, agonist given alone: neither compound was significantly analgesic at non-sedating doses

## O=C1c2ccccc2CCC1Cc1c[nH]c(=S)[nH]1 (stereo not drawn) [Compound 10]
[2]
  allodynia reversal, enantiomers versus parent racemate: allodynia reversal was obtained; also recorded: as effective as parent racemic mixture in relieving pain

## Fc1c(Cl)cccc1CNC1=NCCO1 [Compound 6]
[2]
  Peak allodynia reversal (dose): 92% +/− 5.2%

## Fc1ccc(Br)c(CNC2=NCCO2)c1 [Compound 14]
[2]
  Peak allodynia reversal (dose): 77% +/− 6.2%

## Brc1c(NC2=NCCN2)ccc2nccnc12 [brimonidine]
[4]
  analgesic effect in α-2B knockout mice: analgesic
[3]; [8]
  analgesia: failed to produce analgesia separable from sedation
[3]; [9]
  analgesia: significant analgesia separable from sedation
[1]; [7]
  analgesia: significant analgesia without sedation
[1]; [10]
  analgesia: did not produce analgesia
[2]
  long-term pain alleviation after extended dosing: the allodynia returned completely prior to or following cessation of treatment
[2]; Chung rats
  analgesia when co-administered with Compound 13 at 0.2 mg/kg/day: greater analgesia was observed during the dosing period, and this analgesic effect continued after completion of drug administration

## CCC1=CC(Cc2c[nH]cn2)CCC1 (stereo not drawn) [Compound 9]
[2]; [11]
  allodynia alleviated during the period of drug treatment: 60-80%
  persistence of analgesic effects after treatment: continued for over a month after treatment was concluded

## Clc1cccc(Cl)c1N=C1NCCN1 [clonidine, reference compound]
[5]
  concomitant sedation: produced concomitant sedation
[6]; clonidine 30 μg/kg intraperitoneal
  sedation (activity): reduces activity
[6]; clonidine 100 μg/kg intraperitoneal
  sedation: extremely sedating
[4]
  analgesic effect in α-2B knockout mice: alleviated the analgesia in both heterozygous and homozygous α-2B knockout strains
[3]; [8]
  analgesia: failed to produce analgesia separable from sedation
[3]; intraperitoneal, wild type mice, clonidine 500 ug/kg, Compound 3 100 ug/kg
  sulprostone-induced tactile allodynia: alleviated sulprostone-induced tactile allodynia
[3]; [9]
  analgesia: significant analgesia separable from sedation
[1]; [7]
  analgesia: significant analgesia without sedation
[1]; [10]
  analgesia: did not produce analgesia
[2]; Chung rats
  analgesia when co-administered with 0.3 μg/kg Compound 13: dramatic allodynia reversal
[2]; intrathecal injection, Chung rats
  analgesia: significant analgesia separable from sedation

## NCC1(CC(=O)O)CCCCC1 [gabapentin, reference compound]
[2]
  long-term pain alleviation after extended dosing: the allodynia returned completely prior to or following cessation of treatment

## O=c1[nH]cc(C[C@H]2CCc3cc(F)ccc32)[nH]1 [Compound 12]
[2]
  allodynia reversal, enantiomers versus parent racemate: at least as effective as the parent compound in reducing allodynia at all doses tested

## COC(=O)[C@H]1[C@H]2C[C@H]3c4[nH]c5ccccc5c4CCN3C[C@H]2CC[C@@H]1O [rauwolscine, reference compound]
[1]; rauwolscine 0.3 μg/kg intraperitoneal, α-2A knockout mice
  effect on the analgesic effect of PAC (100 μg/kg i.p.): blocked
[2]; [12]
  inhibition of the analgesic activity of Compound 8, fourth day of treatment: not on the fourth day
  inhibition of the analgesic activity of Compound 8, third day of treatment: inhibited the analgesic activity of Compound 8 when injected on the third day

## Clc1cccc(CNC2=NCCS2)c1Cl [Compound 5]
[2]
  Peak allodynia reversal (dose): 77% +/− 8.3%

## Cc1cccc(CNC(=S)NCCO)c1F [Compound 7]
[2]
  Peak allodynia reversal (dose): 60% +/− 8.0%

## CC1=CCCC1Cc1c[nH]c(=S)[nH]1 (stereo not drawn) [Compound 2]
[6]; 100 μg/kg Compound 2 co-administered with 0.3 μg/kg Compound 13
  sedative effects: no significant sedative effects
[3]; [8]
  analgesia: not analgesic
[1]; [7]
  analgesia: fully analgesic
[2]; Chung rats
  analgesia when co-administered with 0.3 μg/kg Compound 13: significant analgesia
  analgesia, agonist given alone: not analgesic
